Assay: molar heat capacity at constant pressure
Details: 101.33 kPa, Crystal, Vacuum adiabatic calorimetry

O=C([O-])c1cnccn1.O=C([O-])c1cnccn1.O=C([O-])c1cnccn1.[Cr+3] [chromium(III) pyrazine-2-carboxylate]
Details	molar heat capacity at constant pressure [J/K/mol]
78.86 K	155.98
80 K	158.16
80.64 K	158.92
83.3 K	162.11
85 K	164.76
85.88 K	166.03
88.38 K	169.59
90 K	171.35
90.8 K	172.28
93.14 K	175.35
95 K	177.94
95.47 K	178.53
97.73 K	181.47
99.91 K	184.54
100 K	184.53
102.06 K	187.64
104.19 K	189.79
105 K	191.12
106.26 K	192.72
108.39 K	195.56
110 K	197.7
110.39 K	198.32
112.38 K	200.9
114.31 K	203.62
115 K	204.28
116.37 K	206.2
118.23 K	208.83
120 K	210.86
120.16 K	211.45
122.08 K	214.08
125 K	217.43
125.04 K	217.8
128.55 K	221.83
130 K	223.99
131.51 K	226.29
134.47 K	230.41
135 K	230.55
137.5 K	234.21
140 K	237.1
140.45 K	237.72
143.48 K	241.61
145 K	243.64
146.44 K	245.42
149.4 K	249.27
150 K	250.18
152.43 K	252.82
155 K	256.7
155.38 K	257.11
158.34 K	260.91
160 K	263.21
161.37 K	264.59
164.4 K	269.32
165 K	269.71
167.42 K	273.11
170 K	276.2
170.38 K	276.93
173.34 K	280.52
175 K	282.68
176.44 K	284.26
179.4 K	287.73
180 K	289.15
182.42 K	292.31
185 K	295.6
186.48 K	297.74
190 K	302.03
190.68 K	302.64
193.71 K	306.32
195 K	308.46
196.73 K	310.4
199.76 K	313.83
200 K	314.86
202.79 K	317.64
205 K	321.25
205.75 K	321.74
208.71 K	325.63
210 K	327.63
211.73 K	329.9
214.76 K	333.75
215 K	333.98
217.79 K	337.53
220 K	340.32
220.81 K	341.42
223.77 K	344.95
225 K	346.64
226.8 K	348.56
229.76 K	352.76
230 K	352.95
232.79 K	356.86
235 K	359.23
235.75 K	360.47
238.84 K	363.97
240 K	365.49
242.01 K	368.73
245 K	371.73
245.86 K	373.07
249.57 K	377.69
250 K	377.95
252.6 K	381.55
255 K	384.15
255.7 K	385.19
258.73 K	388.65
260 K	390.33
261.82 K	392.4
264.85 K	396.6
265 K	396.49
267.86 K	400.48
270 K	402.62
270.92 K	403.75
273.93 K	407.18
275 K	408.73
276.89 K	410.85
279.85 K	414.48
280 K	414.81
282.87 K	418.25
285 K	420.87
285.83 K	421.97
288.79 K	425.74
290 K	426.91
291.89 K	428.76
294.92 K	432.73
295 K	432.92
297.94 K	436.5
298.15 K	436.69
300 K	438.9
300.28 K	439.48
302.83 K	442.7
305 K	444.86
305.99 K	446.12
309.09 K	450.09
310 K	450.79
312.18 K	454.16
315 K	456.7
315.35 K	457.58
318.38 K	461.21
320 K	462.57
321.54 K	464.38
324.64 K	468.15
325 K	468.42
327.67 K	471.32
330 K	474.25
330.76 K	475.09
333.79 K	478.57
335 K	480.04
336.88 K	481.84
339.91 K	485.31
340 K	485.8
343.01 K	488.64
345 K	491.54
345.97 K	491.76
349.05 K	495.84
350 K	497.25
352.03 K	499.11
355 K	502.92
355.1 K	502.61
358.14 K	506.45
360 K	508.57
361.31 K	510.02
364.47 K	513.54
365 K	514.18
367.57 K	517.31
370 K	519.77
370.74 K	520.43
373.88 K	524.09
375 K	525.32
377.03 K	527.59
380 K	530.85
380.17 K	530.85
383.23 K	534.71
385 K	536.34
386.16 K	537.95
389.19 K	541.27
390 K	541.8
392.45 K	544.56
395 K	547.22
395.47 K	547.81
400 K	552.62

From the NIST ThermoML archive (doi:10.1016/j.tca.2012.05.023)
